Source: publication PMC11714206, “Massively Parallel Screening of Toll/Interleukin‐1 Receptor (TIR)‐Derived Peptides Reveals Multiple Toll‐Like Receptors (TLRs)‐Targeting Immunomodulatory Peptides” (Advanced Science, 2024)
Values belong to the sequence of their own block, whether it stands above or below them.

Biological target: T1, MyD88^TIR (Homo sapiens, UniProt Q99836)
T1 construct: MyD88 (residues 148–296); 6xHis; made in house; host or cells: E. coli BL21 (DE3)
Assay: T‐Surf phage library (P8 and P3) selection against MyD88^TIR, four rounds, NGS read counts
Format: binding
Conditions: for P3_MyD88 Rank (after) / P3_MyD88 Rank (before): P3 library; for P8_MyD88 Rank (after) / P8_MyD88 Rank (before): P8 library; for Population: 4th round of selection against MyD88 TIR, share of NGS reads
In short: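 Read counts come from NGS of phage pools enriched over four selection rounds on the plate‐coated TIR domain (5 µg mL^−1). Each round: 1 h phage binding at room temperature after 0.2% BSA blocking, Tween washes, acid elution, amplification in E. coli TG1 with M13KO7 helper.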

[1] = selection against MyD88 TIR, rank by count after grouping
[2] = selection against MyD88 TIR, rank by count before grouping
[3] = 4R selection against MyD88, rank after grouping
[4] = 4R selection against MyD88, rank before grouping
[5] = P8_MyD88: rank by count after grouping
[6] = P8_MyD88: rank by count before grouping
[7] = selection against MyD88, rank after grouping
[8] = selection against MyD88, rank before grouping
[9] = P8_MyD88 pool: P8 T-Surf phage library
[10] = selection against MyD88, rank by count after grouping
[11] = selection against MyD88, rank by count before grouping
[12] = P3_MyD88: rank by count after grouping
[13] = P3_MyD88: rank by count before grouping
[14] = P8_MyD88: rank by NGS read count after grouping
[15] = P8_MyD88: rank by NGS read count before grouping
[16] = P3_MyD88 pool: P3 T-Surf phage library

T1 sequence (Q99836 148-296): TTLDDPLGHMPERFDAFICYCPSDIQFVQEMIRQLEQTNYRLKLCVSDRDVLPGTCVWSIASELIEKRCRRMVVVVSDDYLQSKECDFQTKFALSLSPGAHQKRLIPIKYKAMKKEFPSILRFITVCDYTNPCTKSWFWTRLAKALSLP

Sequence: SWGQSFLKSPLGWLFA
P3_MyD88 Rank (after) [1]: 272
P3_MyD88 Rank (before) [2]: 2936

Sequence: DPQDLVWFYESLVSLF
P8_MyD88 Rank (after) [1]: 263
P8_MyD88 Rank (before) [2]: 2714

Sequence: FIRYLVWGLRDERLNL
P8_MyD88 Rank (after) [1]: 208
P8_MyD88 Rank (before) [2]: 297

Sequence: YTSLTNRGFLIFRDND
P3_MyD88 Rank (after) [3]: 596
P3_MyD88 Rank (before) [4]: 1624

Sequence: PQDLEWFYERLVTHVLLRHL
P8_MyD88 Rank (after) [7]: 566
P8_MyD88 Rank (before) [8]: 3461

Sequence: SNFRKGLSRLLELSKK
P3_MyD88 Rank (after) [7]: 572
P3_MyD88 Rank (before) [8]: 3283

Sequence: DPQDLDRSYERLVSLC
P8_MyD88 Rank (after) [3]: 670
P8_MyD88 Rank (before) [4]: 2842

Sequence: DHHLDLPSGKAIKPDILG
Rank (after) [12]: 107
Rank (before) [13]: 2044

Sequence: DPQERGCQYQRLVGML
Rank (after) [14]: 902
Rank (before) [15]: 3019

Sequence: IDDEHLTYLGRLLLSR
P8_MyD88 Rank (after) [3]: 580
P8_MyD88 Rank (before) [4]: 3649

Sequence: GEDTRLPLPAICMRP
P3_MyD88 Rank (after) [10]: 740
P3_MyD88 Rank (before) [11]: 1831

Sequence: SSFREGLSRLPELSKK
P3_MyD88 Rank (after) [3]: 589
P3_MyD88 Rank (before) [4]: 3207

Sequence: YYDSRWALDELLKIL
P8_MyD88 Rank (after) [7]: 484
P8_MyD88 Rank (before) [8]: 1678

Sequence: GLYDELFMTETDERKR
Rank (after) [12]: 439
Rank (before) [13]: 1851

Sequence: YAFTGHLHRYLVQRL
Rank (after) [12]: 134
Rank (before) [13]: 834

Sequence: NERVHVWSSKAKSLVG
Rank (after) [12]: 443
Rank (before) [13]: 3453

Sequence: DPQDLGCFYERLVSLF
P8_MyD88 Rank (after) [3]: 611
P8_MyD88 Rank (before) [4]: 2721

Sequence: DLCDILSQNGIPTFFD
P8_MyD88 Rank (after) [7]: 534
P8_MyD88 Rank (before) [8]: 2582

Sequence: SSFRECLWSLPELSKK
P3_MyD88 Rank (after) [10]: 699
P3_MyD88 Rank (before) [11]: 3138

Sequence: FDASSSWALDELLRILY
Rank (after) [5]: 404
Rank (before) [6]: 813

Sequence: YTALTNSGIHTLRDND
Rank (after) [12]: 174
Rank (before) [13]: 1691

Sequence: LAANEIRKEMKTLATI
P3_MyD88 Rank (after) [10]: 680
P3_MyD88 Rank (before) [11]: 2326

Sequence: VTSSWALEELRHIMEL
Rank (after) [14]: 947
Rank (before) [15]: 2269

Sequence: ELDGDFGRNLWDLWRL
P8_MyD88 Rank (after) [1]: 249
P8_MyD88 Rank (before) [2]: 477

Sequence: DHHLDLPRGKAIKQEILG
Population [16]: 0.00495%

Other lines, results leading:

Rank (after) [5]: 451
Rank (before) [6]: 3240
Sequence: LGYHWLDWEYFVSIED

P3_MyD88 Rank (after) [3]: 620
P3_MyD88 Rank (before) [4]: 1566
Sequence: YLKCGYPCFCDRLRFA

P8_MyD88 Rank (after) [3]: 593
P8_MyD88 Rank (before) [4]: 3670
Sequence: MFGGDTFMIFWILLA

Rank (after) [5]: 128
Rank (before) [6]: 138
Population [9]: 0.0119%
Sequence: HYTDSYFALHELALLL

P3_MyD88 Rank (after) [3]: 606
P3_MyD88 Rank (before) [4]: 3460
Sequence: NHDLDLPRGKAIKPEILG

P8_MyD88 Rank (after) [10]: 733
P8_MyD88 Rank (before) [11]: 2791
Sequence: DPQDLDWFYERRVCLF

P3_MyD88 Rank (after) [7]: 557
P3_MyD88 Rank (before) [8]: 3552
Sequence: KQWRNALTAEANLSGW

P8_MyD88 Rank (after) [7]: 512
P8_MyD88 Rank (before) [8]: 2642
Sequence: DPQYRDWFYERLVSLP

Rank (after) [5]: 109
Rank (before) [6]: 115
Population [9]: 0.02%
Sequence: WALQELVKILQAKIFL

Rank (after) [14]: 872
Rank (before) [15]: 3293
Sequence: LGYHWIEWEDFVVIED

P8_MyD88 Rank (after) [3]: 658
P8_MyD88 Rank (before) [4]: 2657
Sequence: DPQVLEWFYERLVSMF

Rank (after) [14]: 1000
Rank (before) [15]: 3237
Sequence: LGYHWEYWVYFVGIED

P3_MyD88 Rank (after) [7]: 547
P3_MyD88 Rank (before) [8]: 2710
Sequence: PEKDNGGEIAFINNLV

Rank (after) [12]: 106
Rank (before) [13]: 1198
Sequence: SSFRDGLWRLLELSKT

P3_MyD88 Rank (after) [3]: 672
P3_MyD88 Rank (before) [4]: 2369
Sequence: LIRAPSVHDFRGFVGI

P8_MyD88 Rank (after) [7]: 533
P8_MyD88 Rank (before) [8]: 3500
Sequence: PQEQVWFYERQVSLIV

Population [16]: 0.00291%
Sequence: NQWHNALTAAANLSGW

P3_MyD88 Rank (after) [3]: 618
P3_MyD88 Rank (before) [4]: 3698
Sequence: KLDSAMIIKVQRWREA

P8_MyD88 Rank (after) [10]: 688
P8_MyD88 Rank (before) [11]: 2121
Sequence: YITRFDDIQQIELFWD

P8_MyD88 Rank (after) [1]: 203
P8_MyD88 Rank (before) [2]: 2685
Sequence: DPQALDWLYERLVSLF

Rank (after) [14]: 957
Rank (before) [15]: 3326
Sequence: LGYQWNDWEYFVGIED

P3_MyD88 Rank (after) [1]: 241
P3_MyD88 Rank (before) [2]: 951
Sequence: DHHLDLPRGKAIKPEFW

P3_MyD88 Rank (after) [3]: 650
P3_MyD88 Rank (before) [4]: 2595
Sequence: RISAFHQQLVIALEAQ

P8_MyD88 Rank (after) [7]: 540
P8_MyD88 Rank (before) [8]: 1760
Sequence: YAASTWWHTVLARLMG

P3_MyD88 Rank (after) [7]: 541
P3_MyD88 Rank (before) [8]: 2992
Sequence: SENYATSPWRWMNWC
